These results are taken from patent publication US8697840B2, “Peptide inhibition of lung epithelial apoptosis and pulmonary fibrosis” (Board of Regents, The University of Texas System, priority 2008, dated 2014).

In test [1] the test system is bleo-induced collagen deposition in mouse lung. As to the kind of experiment: Mason's Trichrome stain for collagen of lung sections of bleo-treated mice. Type of test: in vivo. Conditions: for Collagen content in lung section: bleo-treated animals, peptide one day after bleo, day 21, trichrome stain. As to the method: FIG. 13 is a set of photomicrographs showing that PP-1 prevents bleo-induced collagen deposition in mouse lung. Mice were treated with bleo (50 μg/ml) by intranasal instillation followed by treatment with PP-1 (10 nM) or control peptide CP-1 on day 2. Lungs were excised on day 21, inflated and fixed in formalin, a sectioned into […] sections which were subjected to Mason's Trichrome stain (a three-color stain that stains cell nuclei red, collagen green or blue, and cytoplasm red). Blue staining indicates collagen deposition in bleo-treated lung sections.
(§1) FIGS. 14A & 14B is a series of photomicrographs of lung epithelial tissue stained with Mason's trichrome stain for collagen (FIG. 10A) and by TUNEL staining for apoptosis (FIG. 10B). Bleo-treated animals were instilled with either PP-1, PP-2 or control peptide CP-1 one day after bleo treatment, The lungs were removed on day 21, subjected to the staining procedures and examined for collagen accumulation or apoptosis.
Collagen deposition in mouse lung after bleo treatment was investigated. Mice were treated with bleo (50 μg/ml) by intranasal instillation followed by treatment with PP-1 (10 nM) (designated as PP in Figure) or control peptide CP-1 (designated CP in FIG. 13) on day 2. Lungs were excised on day 21, inflated and fixed in formalin, a sectioned into […] sections which were subjected to Mason's Trichrome stain (a three-color stain that stains cell nuclei red, collagen green or blue, and cytoplasm red).
(§2) A comparison was made of normal and bleo-treated lung, and the effect of PP-1 and PP-2 on the bleo-treated lungs were examined. Animals were treated with bleo and peptides as above. Lung tissue was removed at day 21 and stained with Mason's trichrome stain for collagen and subjected to TUNEL staining for apoptosis.

Test [2] concerns bleomycin-induced lung epithelial cell (LEC) apoptosis. As to the kind of experiment: TUNEL staining for apoptosis of lung sections of bleo-treated mice. Type of test: in vivo, mouse. Conditions: for Lung epithelial cell apoptosis: appearance of cells / Lung epithelial cell apoptosis: cell death: bleo-treated animals, peptide one day after bleo; for Lung epithelial cell apoptosis: appearance of cells: lung tissue day 21; for Lung epithelial cell apoptosis: cell death: lung tissue day 21, TUNEL. As to the method:
The mice were sacrificed 24, 48 and 72 h later. Lungs were excised, inflated and fixed in formalin, and […] sections were analyzed by TUNEL staining. […]

Test [3] has as its system uPAR-dependent adhesion of cells to vitronectin. Conditions: Wei Y et al., 1996, Science 273; cited from earlier work.
The next test relates to bleo-treated lung. As to the kind of experiment: Histology of lung tissue of bleo-treated animals, pathological observations. The class given is in vivo, mouse. Conditions: conclusion from Table 3, day 21.
Description: as §1, §2

Test [4] addresses integrin-caveolin-uPAR complexes (Homo sapiens, UniProt Q03405). Conditions: at a concentration that blocked adhesion; Wei Y et al., 1996; cited from earlier work.
Test [5] relates to bleo-induced lung injury in the mouse. As to the kind of experiment: Lung hydroxyproline (collagen deposition) after bleo-induced lung injury. The class given is in vivo. Conditions: for bleomycin-induced collagen deposition (hPro content, % of control): 10 mM peptide i.p. osmotic pump 7 days after bleo. On the procedure:
(§3) FIGS. 10A and 10B are graphs showing the effect of PP-1 on fibrosis following bleo-induced lung injury in the mouse. […] 24 h after bleo, 0.1 ml osmotic pump filled with 10 mM PP-1 (designated “Bleo+PP” in Figures) or CP1 control scrambled peptide (“Bleo+CP1”) were implanted intraperitoneally. Lungs were harvested after 21 days, homogenized and the homogenates were subjected to the analysis of hydroxyproline or desmosine levels.
Anesthetized mice received intranasal bleomycin HCl solution containing 40 μg/50μl in sterile saline solution. After 24 h, 7 days or 14 days 10 mM PP-1 (“Bleo+PP-1”) or control peptide (Bleo+CP-1) were given ip using a 0.1 ml osmotic pump. Mice were sacrificed and lungs excised 21 days later. Lung homogenates were analyzed for hydroxyproline. Results are expressed a % of control hydroxyproline concentration.
Anesthetized mice received intranasal bleomycin HCl solution containing 40 μg/50 μl in sterile saline solution. After day 7, 10 mM peptide PP-2 (“Bleo+PP-2”) or control peptide (“Bleo+CP-2) were given intraperitoneally using a 0.1 ml osmotic pump. Lungs were excised after 21 days, lungs were homogenized and the homogenates were analyzed for hydroxyproline. Results are expressed a % of control hydroxyproline concentration.
The hPro content of the whole mouse lungs tissues were measured using the technique of Woessner J F, 1961, Arch. Biochem. Biophys. 93:440-7). Lung tissue from each animal was homogenized in 1.0 ml of extraction buffer. One ml 12N HCl was added, and the samples were hydrolyzed at 110° C. for 24 h. After cooling, 5 μl of the samples were mixed with 5 μl of citrate-acetate buffer (5% citric acid, 1.2% glacial acetic acid, 7.25% sodium acetate and 3.4% sodium hydroxide) and 100 μl of chloramine-T solution (1.4% chloramine-T, 10% N-propanol, and 80% citrate acetate buffer) in 96 well plates. The mixture was incubated for 20 min at room temperature. A total of 100 μl of Ehrlich's solution (2.5 g p-dimethylaminobenzaldehyde added to 9.3 ml of n-propanol and 3.9 ml of 70% perchloric acid) was added to each well and the plates incubated at 65° C. for 18 min. The absorbance of each sample was measured at 550 nm. Standard curves were generated for each experiment using a known concentration of reagent hPro. Results were expressed as % changes in hPro content (with total hPro content of saline-treated control mouse lungs considered 100%).
(§4) Lungs were harvested after 21 days, homogenized and the homogenates were subjected to the analysis of hydroxyproline as above (FIG. 10A) or desmosine (FIG. 10B). The effect of PP-1 on fibrosis in bleo-induced mouse lung injury was evaluated. Mice were treated with saline or 50 μg Bleo intranasally were implanted one day later with, 0.1 ml osmotic pumps i.p. The pumps were filled with either 10 mM (2.92 mg/100 μl) PP-1 (“Bleo+PP-1”) or control scrambled peptide CP-1 (“Bleo+CP-1”).

The test system of another test is cleaved PARP. As to the kind of experiment: IHC of lung sections of bleo-treated mice: cleaved PARP. Type of test: in vivo, mouse. To be noted: peptide 4.5 μM i.p. days 1 and 2, bleomycin 40 μg/50 μl intranasal day 2; up to 72 h. As to the method: On day 2 mice were treated with bleomycin (40 μg/50μl) by intranasal instillation. Mice were sacrificed 24, 48 and 72 h after later, lungs were excised, inflated and fixed in formalin, and […] sections were analyzed by immunohistochemistry (IHC) using an antibody specific for cleaved PARP.
(§5) For immunohistochemical (IHC) analysis, lungs were inflated at constant pressure of 20 cm H2O, removed and fixed overnight in 2% paraformaldehyde in PBS. Tissue was dehydrated by passage through a standard alcohol series and was embedded in paraffin. 5 μm sections were deparaffinized with xylene followed by incubation with 100% and 95% alcohol. After 10 min of antigen retrieval, the slides were incubated with H2O2 for 30 min to quench endogenous peroxidase. Slides were incubated overnight with the respective antibodies in PBS containing 0.1% Tween 20 and further processed using Lab vision kit (Freemont Calif.).

The subject of the next test is p53. The test can be described thus: IHC of lung tissue of bleo-treated mice: p53. The class given is in vivo, mouse. To be noted: bleomycin-treated mice, 24-72 h. As to the method:
as §5
(§6) An IHC study was conducted to analyze lung tissue for expression p53, uPA, uPAR, PAI-1 and cleaved caspase 3 (Table 2). […] These IHC observations were confirmed by Western blotting (see Example II and FIG. 5).

A further test deals with PAI-1. As to the kind of experiment: IHC of lung tissue of bleo-treated mice: PAI-1. To be noted: bleomycin-treated mice, 24-72 h. Type of test: in vivo, mouse. As to the method: as §5, §6
For test [6], the system named is bleo-induced lung injury in the mouse. As to the kind of experiment: Lung desmosine (elastin) after bleo-induced lung injury. Type of test: in vivo. Conditions: 50 μg Bleo intranasally; 10 mM peptide in 0.1 ml osmotic pump i.p. one day later; lungs after 21 days. On the procedure:
as §3, §4

Setting [7] is: bleomycin 40 μg/50 μl intranasal, lungs after 21 days.

Chain of integrin-caveolin-uPAR complexes (Q03405 23-305, one chain of several): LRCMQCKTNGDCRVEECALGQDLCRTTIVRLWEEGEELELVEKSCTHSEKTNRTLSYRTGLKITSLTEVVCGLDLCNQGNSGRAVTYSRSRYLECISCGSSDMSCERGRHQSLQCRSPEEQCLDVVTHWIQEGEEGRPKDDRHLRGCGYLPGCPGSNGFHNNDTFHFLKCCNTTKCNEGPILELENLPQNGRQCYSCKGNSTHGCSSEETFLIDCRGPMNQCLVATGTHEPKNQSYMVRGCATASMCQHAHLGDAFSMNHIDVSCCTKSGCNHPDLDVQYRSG

Take AESTYHHLSLGYMYTLN [CP-2]: the “Collagen content in lung section” value in test [1] is reported as “Increased”. Also, in [2], the “Lung epithelial cell apoptosis: appearance of cells” value is “Fibrotic cells,” and the “Lung epithelial cell apoptosis: cell death” value was 90% cell. Moreover, the “uPAR-dependent adhesion of cells to vitronectin” value in test [3] is on record as “inhibited uPAR-dependent adhesion of cells to vitronectin”. The “effect on bleo-induced lung injury / Bleo-damaged lung tissue” value with bleo-treated lung is “did not have any discernible effect on Bleo-damaged lung tissue”. Moreover, the “disruption of integrin-caveolin-uPAR complexes” value in test [4] is listed as “disrupted integrin-caveolin-uPAR complexes”. Besides, the “bleomycin-induced collagen deposition (hPro content, % of control)” value in [5] (setting [7]) is on record as “but not its control peptide CP-2 reversed bleomycin induced increases in collagen deposition”.
On to “NYHYLESSMTALYTLGH [PP-2, initially disclosed as scrambled control for Peptide 25 of Wei Y et al]”, for which the “Collagen content in lung section” value in test [1] is given as “Minimal”. Also, the “development of bleo-induced lung fibrosis” value in [1] (conclusion from Table 3, day 21) was “prevented the development of bleo-induced lung fibrosis”. Moreover, in test [2], the “Lung epithelial cell apoptosis: appearance of cells” value was “No fibrosis,” and the “Lung epithelial cell apoptosis: cell death” value is 11% cell. Also, in [3], the “uPAR-dependent adhesion of cells to vitronectin” value was “but not its control (which is PP-2 here) inhibited uPAR-dependent adhesion of cells to vitronectin”. Further, in the test with bleo-treated lung, the “effect on bleo-induced lung injury / Bleo-damaged lung tissue” value is reported as “protected LECs from bleo-induced lung injury”. Moreover, the “disruption of integrin-caveolin-uPAR complexes” value in test [4] is listed as “but not its control, disrupted integrin-caveolin-uPAR complexes”. Moreover, the “bleomycin-induced collagen deposition (hPro content, % of control)” value in [5] (setting [7]) is “significantly suppressed collagen deposition”.
Regarding “WGIDKAFFTTSTVTYKWFRY [CP-1, scrambled control peptide for PP-1 with the same amino acid composition]”, the “Collagen content in lung section” value in test [1] is given as “Increased”. In [2], the “Lung epithelial cell apoptosis: appearance of cells” value is recorded as “Fibrotic cells,” and the “Lung epithelial cell apoptosis: cell death” value was 90% cell. The “apoptosis (TUNEL positive cells)” value in test [2] (peptide 4.5 μM i.p. on day 1 and 2, bleomycin 40 μg/50 μl intranasal on day 2, 24, 48 and 72 h) is “but not with control peptide, reversed bleomycin-induced apoptosis”. The “cleavage (degradation) of PARP in lung” value in the test on cleaved PARP was “but not control peptide CP-1 reversed such PARP degradation”. The “effect on bleo-induced lung injury / Bleo-damaged lung tissue” value with bleo-treated lung is “did not have any discernible effect on Bleo-damaged lung tissue”. Further, the “p53 expression in lung tissue (IHC)” value with p53 is “but not control peptide CP-1, blocked bleomycin induced p53 expression”. Moreover, the lung hydroxyproline levels result in test [5] (50 μg Bleo intranasally, 10 mM peptide in 0.1 ml osmotic pump i.p. one day later, lungs after 21 days) is recorded as “did not have this effect”. Moreover, the “bleomycin-induced collagen deposition (hydroxyproline, % of control)” value in test [5] (bleomycin 40 μg/50 μl intranasal, 10 mM peptide i.p. osmotic pump after 24 h, 7 days or 14 days, lungs 21 days) was “but not control peptide CP-1 reversed bleomycin-induced increases in collagen deposition”. Moreover, the “PAI-1 expression in lung tissue (IHC)” value in the test with PAI-1 is given as “but not control peptide (CP-1) reduced this PAI-1 expression”. The lung desmosine levels result in test [6] is listed as “did not have this effect”.
